Measured values reported in patent publication EP0358047A2, “Method of controlling phytopathogenic fungi” (AMERICAN CYANAMID COMPANY, priority 1988, dated 1990).
Read-outs that look alike come from different tables or passages of the source.

Assays:
Assay in all cases: In vitro fungicide screen: inhibition of mycelial growth on agar medium
Format in all cases: cell-based
[1] = test system: Rhizoctonia solani (Rhiz); conditions: for inhibition at 10 ppm: read-out: % Growth Inhibition Rhiz
Experimental: (§1) Severe soilborne diseases such as damping off, seedling blight, crown rot, and root rot, among others are caused by certain plant pathogenic fungi. An in vitro assay is conducted to determine whether test compounds will inhibit the mycelial growth of said fungi. Pathogens, the method of testing, and the rating system used are reported below.
(§2) Assay fungi include the following plant pathogens: • Botrytis cinerea (Botry) • Pseudocerosporella herpotrichoides (Pseudo) • Pythium ultimum (Pyth) • Rhizoctonia solani (Rhiz)
(§3) The test compound (2.5-10 mg) is dissolved in 0.5 mL acetone, diluted with 4.5 mL sterile deionized water, and mixed with 95 mL of an autoclaved and partially cooled, chemically defined agar medium in a 250 mL flask. Test compounds that are insoluble are prepared as a fine suspension ultrasonically, or with a glass tissue grinder, before addition to the medium. The chemically defined medium used in these experiments is as follows: • 15 g of sucrose, 0.5 g NH4Cl, 0.5 g KNO3, 0.5 g KH2PO4, 0.5 g K2HP04, 0.25 g MgSO4.7H2O, 50 mg CaC)2.6H20, 0.75 mg FeSO4.7H2O, 0.22 mg MnSO4.5H2O, 0.6 mg CuSO4.5H2O, 7.5 mg ZnC12, 2.5 mg thiamine, 60 µg(NH4)6Mo7O24.4H2O, 90 u.g H3BO3, 5 ug biotin, 20 g agar, and water to 1L.
(§4) The mixture of test compound and agar medium as described above is poured into several 100 mm x 15 mm sterile plastic plates and allowed to solidify. The surface of each plate is inoculated with a single disc of mycelium and agar cut with an 8 mm diameter cork borer from actively growing cultures of assay fungi on a chemically defined agar medium. The plates are incubated at room temperature. Growth inhibition is determined when the mycelial growth on unamended control media has reached the edge of the petri plates. The time interval varies depending on the growth rate of the fungus; two days for Pythium ultimum (Pyth) and Rhizoctonia solani (Rhiz), five days for Botrytis cinerea (Botry), and 7-10 days for Pseudocercosporella herpotrichoides (Pseudo). Each colony diameter is measured and compared with the untreated control and the percent inhibition is calculated as follows: [formula] Each test includes a solvent blank consisting of the formulation without a test compound in addition to the untreated control.

[2] = test system: Botrytis cinerea (Botry); conditions: five days, room temperature
Experimental: as §1, §2, §3, §4

[3] = test system: Pythium ultimum (Pyth); conditions: two days, room temperature; for inhibition at 1 ppm: Rate 1 ppm in agar medium
Experimental: as §1, §2, §3, §4

[4] = test system: Pseudocercosporella herpotrichoides (Pseudo); conditions: 7-10 days, room temperature
Experimental: as §1, §2, §3, §4

[5] = Rhizoctonia solani, 48 h, Rate 100 ppm in agar medium, two days, room temperature
[6] = Botrytis cinerea, 120 h, Rate 100 ppm in agar medium
[7] = Globisporangium ultimum, 48 h, Rate 100 ppm in agar medium
[8] = Oculimacula yallundae, Rate 100 ppm in agar medium
[9] = Rhizoctonia solani, 48 h, Rate 10 ppm in agar medium, two days, room temperature

Compound | inhibition at 100 ppm [1, 5] [%] | inhibition at 100 ppm [2, 6] [%] | inhibition at 100 ppm [3, 7] [%] | inhibition at 100 ppm [4, 8] [%] | further results
N#Cc1cc[nH]c1-c1ccc(Cl)cc1 [2(p-Chlorophenyl)-pyrrole-3-carbonitrile] | 61 | 68 | 95 | 86 | 
O=[N+]([O-])c1c(-c2ccccc2)[nH]c(Br)c1Br [2,3-Dibromo-4-nitro-5-phenyl-pyrrole] | 63 | 87 | 97 | 71 | 
O=[N+]([O-])c1c(-c2ccc(C(F)(F)F)cc2)[nH]c(Cl)c1Cl [2,3-Dichloro-4-nitro-5-(α,α,α-trifluoro-p-tolyl)-pyrrole] | 100 | 100 | 100 | 100 | 
O=[N+]([O-])c1c(-c2ccccc2)[nH]c(Cl)c1Cl [2,3-Dichloro-4-nitro-5-phenyl-pyrrole, 2,3-Dichloro-4-nitro-5-phenylpyrrole] | 81 | 97 | 100 | 100 | 
O=[N+]([O-])c1c(-c2ccc(Cl)cc2)[nH]c(Cl)c1Cl [2,3-Dichloro-5-(p-chlorophenyl) -4-nitropyrrole] | 96 | 96.3 | 92.1 | 50 | 
O=[N+]([O-])c1c(Br)[nH]c(Br)c1-c1ccccc1 [2,5-dibromo-3-nitro-4-phenyl-pyrrole] |  |  |  |  | inhibition at 10 ppm [1, 9]: 100%; inhibition at 1 ppm ([3]; Globisporangium ultimum, 48 h): 100%; inhibition at 10 ppm ([4]; Oculimacula yallundae, Rate 10 ppm in agar medium): 100%
N#Cc1cc[nH]c1-c1cccc(Cl)c1 [2-(m-Chloro-phenyl)pyrrole-3-carbonitrile] | 95 | 74 | 82 | 67 | 
O=[N+]([O-])c1c(-c2ccc(Br)cc2)[nH]c(Cl)c1Cl [2-(p-Bromo-phenyl)-4,5-dichloro-3-nitropyrrole] | 92 | 89 | 68 | 83 | 
N#Cc1cc[nH]c1-c1ccccc1 [2-Phenylpyrrole-3-carbonitrile, 2-Phenylpyrrole-3-carbonitrile] | 89 | 95 | 100 | 100 | 
N#Cc1c(-c2ccccc2Cl)[nH]c(Cl)c1Cl [4,5 Dichloro-2-(o-chlorophenyl) pyrrole-3-carbo-nitrile] |  |  |  |  | % Growth Inhibition Rhiz ([1]; Rate 100 ppm in agar medium, two days, room temperature): 52.6%; % Growth Inhibition Botry ([2]; Rate 100 ppm in agar medium): 3.1%; % Growth Inhibition Pyth ([3]; Rate 100 ppm in agar medium): 0%; % Growth Inhibition Pseudo ([4]; Rate 100 ppm in agar medium): 16.7%
N#Cc1c(-c2ccc(Cl)cc2)[nH]c(Cl)c1Cl [4,5-Dichloro-2-(p-chlorophenyl)pyrrole-3-carbonitrile] | 64.7 | 66.7 | 45 | 42.8 | inhibition at 25 ppm ([1]; Rhizoctonia solani, 48 h, Rate 25 ppm in agar medium, two days, room temperature): 73.3%; inhibition at 50 ppm ([1]; Rhizoctonia solani, 48 h, Rate 50 ppm in agar medium, two days, room temperature): 73.3%; inhibition at 25 ppm ([2]; Botrytis cinerea, 120 h, Rate 25 ppm in agar medium): 82.1%; inhibition at 50 ppm ([2]; Botrytis cinerea, 120 h, Rate 50 ppm in agar medium): 71.4%; inhibition at 25 ppm ([3]; Globisporangium ultimum, 48 h, Rate 25 ppm in agar medium): 34.2%; inhibition at 50 ppm ([3]; Globisporangium ultimum, 48 h, Rate 50 ppm in agar medium): 44.7%; inhibition at 25 ppm ([4]; Oculimacula yallundae, Rate 25 ppm in agar medium): 0%; inhibition at 50 ppm ([4]; Oculimacula yallundae, Rate 50 ppm in agar medium): 40%
N#Cc1c(-c2ccc(Cl)cc2)[nH]c(C(F)(F)F)c1Br [4-Bromo-2-(p-chlorophenyl)-5-(trifluoromethyl)pyrrole-3-carbonitrile] |  |  |  |  | inhibition at 10 ppm ([1]; Rhizoctonia solani, 48 h): 100%
N#Cc1cc([N+](=O)[O-])c(-c2ccc(Cl)c(Cl)c2)[nH]1 [5-(3,4-Dichlorophenyl)-4-nitropyrrole-2-carbonitrile] |  |  |  |  | inhibition at 10 ppm [1, 9]: 100%; inhibition at 1 ppm ([3]; Globisporangium ultimum, 48 h): 100%
